Assay results reported in patent US8063225B2, “Tricyclic compound derivatives useful in the treatment of neoplastic diseases, inflammatory disorders and immunomodulatory disorders” (Chembridge Corporation, priority 2006, dated 2011).

What was measured:
Alk = biological target: T1, Alk (Homo sapiens, UniProt Q9UM73); experiment: Tyrosine kinase assay (Kinase-Glo or AlphaScreen), Alk; conditions: biochemical tyrosine kinase assay
T1 construct: 6×His- or GST-tagged kinase domain fragments of the corresponding RTKs expressed in baculovirus system; host or cells: baculovirus system
T1 sequence (Q9UM73 1116-1392 limits assumed, species assumed): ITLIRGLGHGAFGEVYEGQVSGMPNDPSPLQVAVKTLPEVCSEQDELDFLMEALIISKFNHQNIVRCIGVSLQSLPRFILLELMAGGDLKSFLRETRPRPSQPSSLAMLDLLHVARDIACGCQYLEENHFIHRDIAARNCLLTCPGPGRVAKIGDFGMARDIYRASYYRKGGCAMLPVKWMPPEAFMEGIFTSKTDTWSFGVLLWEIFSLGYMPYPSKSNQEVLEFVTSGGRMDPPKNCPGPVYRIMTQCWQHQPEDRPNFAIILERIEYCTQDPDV
How it was run: (§1)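 Luminescence of remaining ATP (Kinase-Glo) or anti-phosphotyrosine AlphaScreen proximity signal served as read-out. Reactions held purified tagged kinase domain, poly(Glu-Tyr) substrate and 10 μM ATP at pH 7.5. IC50 values came from non-linear regression fits.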

Jak2 = biological target: T2, Jak2 (Homo sapiens, UniProt O60674); experiment: Tyrosine kinase assay (Kinase-Glo or AlphaScreen), Jak2; conditions: biochemical tyrosine kinase assay
T2 construct: 6×His- or GST-tagged kinase domain fragments of the corresponding RTKs expressed in baculovirus system; host or cells: baculovirus system
T2 sequence (O60674 849-1124 limits assumed, species assumed): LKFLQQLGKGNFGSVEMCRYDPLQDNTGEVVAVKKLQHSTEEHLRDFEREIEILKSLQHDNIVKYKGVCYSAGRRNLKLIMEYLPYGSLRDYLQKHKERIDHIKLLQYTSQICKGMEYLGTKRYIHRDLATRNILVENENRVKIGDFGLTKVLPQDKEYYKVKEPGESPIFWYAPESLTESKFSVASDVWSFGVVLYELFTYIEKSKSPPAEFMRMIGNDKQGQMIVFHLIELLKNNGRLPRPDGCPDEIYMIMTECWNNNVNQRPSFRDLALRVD
How it was run: as §1

InsR = biological target: T3, InsR (Homo sapiens, UniProt P06213); experiment: Tyrosine kinase assay (Kinase-Glo or AlphaScreen), InsR; conditions: biochemical tyrosine kinase assay
T3 construct: 6×His- or GST-tagged kinase domain fragments of the corresponding RTKs expressed in baculovirus system; host or cells: baculovirus system
T3 sequence (P06213 1023-1298 limits assumed, species assumed): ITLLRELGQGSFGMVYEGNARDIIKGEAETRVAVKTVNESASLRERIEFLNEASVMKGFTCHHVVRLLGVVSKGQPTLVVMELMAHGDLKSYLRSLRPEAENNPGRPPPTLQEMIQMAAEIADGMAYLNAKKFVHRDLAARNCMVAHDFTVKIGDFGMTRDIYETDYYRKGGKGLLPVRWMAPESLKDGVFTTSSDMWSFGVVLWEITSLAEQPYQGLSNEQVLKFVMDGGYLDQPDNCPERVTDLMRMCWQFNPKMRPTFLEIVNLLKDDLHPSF
How it was run: as §1

IGF1 receptor = biological target: T4, IGF1 receptor (Homo sapiens, UniProt P08069); experiment: ELISA-based assay of IGF1 receptor autophosphorylation inhibition in cells; type: cell-based; conditions: IGF1R phosphorylation inhibition in MCF7 cells
T4 construct: MCF7 human breast cancer cells expressing IGF1 receptor; endogenous in cells; host or cells: MCF7 human breast cancer cells
T4 sequence (P08069 741-1367 limits assumed): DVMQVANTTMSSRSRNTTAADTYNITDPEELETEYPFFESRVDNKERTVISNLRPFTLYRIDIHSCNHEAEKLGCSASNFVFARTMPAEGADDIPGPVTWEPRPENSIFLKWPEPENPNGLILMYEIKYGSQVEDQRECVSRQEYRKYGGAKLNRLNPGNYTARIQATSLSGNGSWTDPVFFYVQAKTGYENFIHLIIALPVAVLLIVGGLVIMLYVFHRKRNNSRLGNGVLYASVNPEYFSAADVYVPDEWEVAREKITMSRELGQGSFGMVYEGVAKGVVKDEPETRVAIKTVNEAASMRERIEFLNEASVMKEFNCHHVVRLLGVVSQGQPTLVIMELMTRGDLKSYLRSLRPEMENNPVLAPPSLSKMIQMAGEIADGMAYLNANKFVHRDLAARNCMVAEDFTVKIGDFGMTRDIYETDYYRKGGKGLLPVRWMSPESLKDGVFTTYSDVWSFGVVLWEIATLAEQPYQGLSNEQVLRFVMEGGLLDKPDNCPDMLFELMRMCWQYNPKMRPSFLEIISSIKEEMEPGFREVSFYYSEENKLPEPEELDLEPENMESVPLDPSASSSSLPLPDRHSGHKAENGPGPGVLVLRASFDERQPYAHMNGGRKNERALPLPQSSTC
T4 sequence (P08069 31-736 partner limits assumed): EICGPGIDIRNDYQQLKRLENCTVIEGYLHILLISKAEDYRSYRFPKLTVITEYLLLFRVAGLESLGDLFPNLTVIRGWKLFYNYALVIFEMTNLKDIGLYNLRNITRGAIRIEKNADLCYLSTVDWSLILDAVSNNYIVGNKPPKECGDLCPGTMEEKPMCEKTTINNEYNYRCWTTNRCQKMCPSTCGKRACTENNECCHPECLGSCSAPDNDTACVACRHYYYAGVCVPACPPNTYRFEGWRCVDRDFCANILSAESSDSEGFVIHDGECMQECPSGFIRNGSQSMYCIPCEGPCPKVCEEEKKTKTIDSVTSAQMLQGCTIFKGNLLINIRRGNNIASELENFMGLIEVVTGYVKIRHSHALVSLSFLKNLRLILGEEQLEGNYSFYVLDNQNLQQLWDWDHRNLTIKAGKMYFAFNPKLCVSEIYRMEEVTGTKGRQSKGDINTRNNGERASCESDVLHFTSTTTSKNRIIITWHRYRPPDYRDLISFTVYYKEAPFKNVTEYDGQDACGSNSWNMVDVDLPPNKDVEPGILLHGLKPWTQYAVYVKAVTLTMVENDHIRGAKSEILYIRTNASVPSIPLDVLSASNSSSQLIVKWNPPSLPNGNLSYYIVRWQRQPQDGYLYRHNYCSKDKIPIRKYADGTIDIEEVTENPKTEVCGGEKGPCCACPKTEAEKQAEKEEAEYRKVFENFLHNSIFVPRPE
Protocol: In another embodiment, compounds that interact with the IGF1R kinase domain are tested in a cell-based assay system. In accordance with this embodiment, cells expressing a full-length IGF1 receptor or a fragment thereof containing the IGF1R kinase domain, are contacted with a candidate or a control compound and the ability of the compound to block tyrosine kinase activity of IGF1R within a cell is determined. This assay may be used to screen a single compound or a large library of candidate compounds. Typically, the cells or cell lines are of mammalian origin and they can express the IGF1 receptor, or functional IGF1R kinase domain fragment, endogenously or be genetically engineered to express the IGF1R, or functional fragment thereof. The ability of the candidate compound to inhibit IGF1R kinase activity can be determined by methods known to those skilled in the art. For example, the inhibition can be determined by ELISA-type assay or Western blot analysis with cell lysates or immunoprecipitated IGF1R receptor using various anti-IGF1R and anti-phosphotyrosine antibodies.
In general, cells expressing IGF1R are treated with modulators (i.e., inhibitors or activators) of IGF1R kinase activity and cell lysates are produced from these treated cells. IGF1Rs are isolated from the lysate by immunoprecipitation and analyzed for phosphotyrosine content. Alternatively, or in addition, cellular protein substrates phosphorylated by IGFR may be immunoprecipitated from the lysates and their degree of tyrosine phosphorylation determined.
MCF7 human breast cancer cells expressing IGF1 receptor or an engineered […] fibroblast cell line NIH 3T3 overexpressing full-length IGF1R are an exemplary cellular models in which to perform such assays. Such cells may be maintained in DMEM medium supplemented with 10% fetal bovine serum (FBS), 4% L-glutamine, 1% antibiotic solution (penicillin-Streptomycin) in a humidified atmosphere of 95% air and 5% CO2 at 37° C. Confluent cells in T175 cell culture flasks are incubated overnight with serum-free DMEM medium. After the serum starvation step, the cells are detached and split into a standard 96-well cell culture plate (one T175 flask per plate, 30 μl of cell suspension per plate well). Tested inhibitors from their 10 mM stock solutions in DMSO are subsequently added at various concentrations in serum-free DMEM medium for 1 hour incubation at 37° C. in CO2-incubator; total DMSO concentration in both treated and control wells is adjusted to 1%. Cells are then stimulated for 10 minutes with 100 nM IGF-1 added in 30 μl DMEM. After treatment, cells are lysed by addition of 30 μl of 4× lysis buffer (phosphate-buffered saline (PBS), 2% Triton-X100, 1 mM phenylmethylsulphonyl fluoride (PMSF) and 8 mM activated orthovanadate), mixing and incubation for 15 minute at room temperature. To prepare assay plates, 96-well ELISA Plates (Pierce Chemical, Reacti-bind plates) were coated by goat-anti-rabbit Fc antiserum by adding 0.25 μg antiserum per well in 0.2M sodium bicarbonate buffer per well and incubating overnight at 4° C. After incubation, the plate is washed three times by PBS with 0.02% Tween-20, supplied with 25 ng/50 μl per well of anti-IGF1R antibody (C-20, Santa Cruz Biotechnology) and incubated for several hours to overnight. Prior to the addition of the prepared cellular lysates, the antibody solution is aspirated, wells washed with PBS and supplied with 25 μl per well of Starting Block buffer (Pierce Chemical).
To measure tyrosine phosphorylation of the beta-subunits of the IGF1R, 25-50 μl of the lysates are transferred from the stimulation plate to the wells of the prepared assay plate and incubated overnight at 4° C. The wells are washed with PBS with 0.02% Tween-20, incubated with 50 μl of 1:3000 dilution of anti-phosphotyrosine 4G10-HRP antibody conjugate (Upstate Biotechnology) for 2 hours at room temperature and washed again. […]

IGF1R tyrosine kinase = biological target: T5, IGF1R tyrosine kinase (Homo sapiens, UniProt P08069); experiment: IGF1R tyrosine kinase assay (Kinase-Glo ATP depletion or PT66/PT100 AlphaScreen); conditions: biochemical tyrosine kinase assay
T5 construct: 6×His- or GST-tagged kinase domain fragments of the corresponding RTKs expressed in baculovirus system; host or cells: baculovirus system
T5 sequence (P08069 999-1274 limits assumed): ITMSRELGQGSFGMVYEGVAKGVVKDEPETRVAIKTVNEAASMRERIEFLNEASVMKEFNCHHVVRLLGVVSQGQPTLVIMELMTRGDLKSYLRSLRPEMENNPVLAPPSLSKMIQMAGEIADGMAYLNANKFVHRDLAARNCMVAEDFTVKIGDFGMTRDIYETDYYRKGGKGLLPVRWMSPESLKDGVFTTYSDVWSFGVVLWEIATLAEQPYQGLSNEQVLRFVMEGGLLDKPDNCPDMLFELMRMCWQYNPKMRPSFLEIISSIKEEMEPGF
How it was run: as §1

[1] = tested on: CHO (chinese hamster ovary); experiment: Cell proliferation inhibition, Cell Titer-Glo, CHO; type: cell-based; conditions: Cricetulus griseus; cell proliferation assay, CHO cells
Protocol: (§2) IGF1R and other tyrosine kinase inhibitors can inhibit the proliferation of certain cancer cell lines indicating their possible therapeutic utility for treating the corresponding cancer types. Cancer cell lines of interest and control normal lines, including CHO, HEK293, BA/F3, MM1, H929, COLO205, PC3, DU145, MCF7, Panc1, ACHN, Hep G2, H460, K562, TT, U87-G, CAOV-3, SK-MEL5, Karpas 299, are plated in white, clear-bottomed 384-well cell culture plates at 2500-5000 cells per well and supplied with dilutions of tested compounds After a desired period of time (typically 3 days), the number of viable cells is quantitated by using Cell Titer-Glo Luminescent Cell Viability Assay (Promega), a cell proliferation assay system based on detection of total amount of ATP present as a measure of cell metabolic activity. The plated cells are mixed with the Cell Titer-Glo developing reagent and counted in a luminescence multiwell plate reader according to the standard manufacturer's protocol to generate IC50 curves for cell proliferation inhibition.
(§3) IGF1R and other tyrosine kinase inhibitors can inhibit the proliferation of certain cancer cell lines indicating their possible therapeutic utility for treating the corresponding cancer types. Cancer cell lines of interest and control normal lines, including CHO, HEK293, BA/F3, COLO205, PC3, DU145, MCF7, Panc1, ACHN, Hep G2, H460, K562, TT, U87-MG, CAOV-3, SK-MEL5, Karpas 299 and human multiple myeloma cell lines H929, MM1s, MM1r, UTMC2, CPM2, KMS11, My5, KMS12PE, My7, JJN3, KMS18, U266, SKMM2, RPMI-8226 are plated in white, clear-bottomed 384-well cell culture plates at 2500-5000 cells per well and supplied with dilutions of tested compounds After a desired period of time (typically 3 days), the number of viable cells is quantitated by using Cell Titer-Glo Luminescent Cell Viability Assay (Promega), a cell proliferation assay system based on detection of total amount of ATP present as a measure of cell metabolic activity. The plated cells are mixed with the Cell Titer-Glo developing reagent and counted in a luminescence multiwell plate reader according to the standard manufacturer's protocol to generate IC50 curves for cell proliferation inhibition. Results are typically reported as percent of growth (% viability =(OD72h(compound)−ODday0))/(OD72h(no compound)−ODday0). Alternatively, viable cells are quantitated by using the conventional colorimetric MTT assay. The MTT assay is based on the cleavage of the yellow tetrazolium salt MTT to purple formazan crystal by metabolic active cells. The formazan is then solubilized, and the concentration determined by optical density at 570 nm. The cells plated and incubated with a compound as described above are supplemented with the solution of MTT and incubated for 2-3 hours. The growth medium is removed and dimethyl sulfoxide is added into each well to dissolve the formazan. The absorbance is measured on an ELISA plate reader with a test wavelength of 570 nm and a background subtraction wavelength of 630 nm to obtain sample signal (OD570-OD630). […] The results are reported in terms of IC50 value for a particular compound and a cell line in the standard 3-day proliferation assay using Cell Titer-Glo. […] The results are reported in terms of IC50 value for a particular compound and a cell line in the standard 3-day proliferation assay using MTT assay.

H929 (multiple myeloma) = experiment: Cell proliferation inhibition, Cell Titer-Glo, H929; type: cell-based; conditions: Homo sapiens, NCI-H929; cell proliferation assay, H929 cells
Protocol: as §2, §3

SMILES	IC50 (Alk) [µM]	IC50 (Jak2) [µM]	IC50 (InsR) [µM]	IC50 (IGF1 receptor) [µM]	IC50 (IGF1R tyrosine kinase) [µM]	IC50 [1] [µM]	IC50 (H929 (multiple myeloma)) [µM]
Cc1cc(OCC(O)CNc2cc[nH]c(=O)c2-c2nc3cc4c(cc3[nH]2)C(=O)N(C2CCN(C)CC2)C4=O)ccc1Cl (centres unmarked) [compound 10]	> 15	5 to 15	0.5 to 5	> 15	5 to 15		
CN1CCC(N2C(=O)c3cc4nc(-c5c(NC[C@H](O)COc6ccc(F)cc6)cc[nH]c5=O)[nH]c4cc3C2=O)CC1 [compound 22]	0.5 to 5	0.5 to 5	0.5 to 5	> 15	0.5 to 5		
CN1CCCC1CCN1C(=O)c2cc3nc(-c4c(NC[C@@H](O)c5cccc(Cl)c5)cc[nH]c4=O)[nH]c3cc2C1=O (some centres unmarked) [compound 18]	0.5 to 5	0.5 to 5	0.5 to 5	> 15	< 0.5		
CN1CCC(N2Cc3cc4nc(-c5c(NC[C@@H](O)COc6cc(F)cc(F)c6Cl)cc[nH]c5=O)[nH]c4cc3C2=O)CC1 [compound 152]	0.5 to 5	< 0.5	< 0.5		< 0.5	> 15	5 to 15
COc1cccc(OC[C@H](O)CNc2cc[nH]c(=O)c2-c2nc3cc4c(cc3[nH]2)C(=O)N(C2CCN(C)CC2)C4)c1C [compound 159]	5 to 15	< 0.5	< 0.5		< 0.5	> 15	5 to 15
O=C1NC(=O)c2cc3[nH]c(-c4c(NC[C@@H](O)c5cccc(Cl)c5)cc[nH]c4=O)nc3cc21 [compound 11]	5 to 15	5 to 15	5 to 15	0.5 to 5	> 15		
CN1CCN(CCCN2C(=O)c3cc4nc(-c5c(NC[C@@H](O)c6cccc(Cl)c6)cc[nH]c5=O)[nH]c4cc3C2=O)CC1 [compound 19]	0.5 to 5	0.5 to 5	0.5 to 5	> 15	< 0.5		
CN1CCC(N2C(=O)c3cc4nc(-c5c(NCC(O)COc6ccc(C(C)(C)C)cc6)cc[nH]c5=O)[nH]c4cc3C2=O)CC1 (centres unmarked) [compound 14]	> 15	0.5 to 5	0.5 to 5	0.5 to 5	0.5 to 5		
O=C1c2cc3nc(-c4c(NC[C@@H](O)c5cccc(Cl)c5)cc[nH]c4=O)[nH]c3cc2C(=O)N1CCCN1CCOCC1 [compound 12]	> 15	> 15	> 15	0.5 to 5	> 15		
